# Data taken from patent publication US11608318B2, “Solid state forms of Omecamtiv mecarbil and Omecamtiv mecarbil diHCl” (ASSIA CHEMICAL INDUSTRIES LTD., priority 2018, dated 2023).
# Source text: (§1) Pharmaceutical molecules may display solid to solid phase transformations and transformations between polymorphs; which may detected by exposure of the solid state form to stress conditions of e.g., high temperature and high relative humidity.
# as §1
substance,measurement,value
Malonic Omecamtiv mecarbil diHCl [form OCM-3],thermodynamic and mechanical stability of the solid state form (polymorphic conversion),thermodynamically and mechanically stable
